Source: patent publication US20120321565A1, “PHARMACEUTICAL COMPOSITIONS COMPRISING 17ALPHA-FURANYLESTERS OF 17BETA-CARBOTHIATE ANDROSTANES WITH A MUSCARINIC RECEPTOR ANTAGONIST” (GlaxoSmithKline Intellectual Property Management Limited, priority 2002, published 2012)

Experiments:
[1] = Pharmacokinetics after intravenous administration in the anaesthetised pig; type: in vivo; settings: for clearance, compound (I) vs fluticasone propionate (in words): intravenous 0.1 mg/kg; for pharmacokinetic parameters, compound (I) vs fluticasone propionate (in words): intravenous mixture of the two compounds at 0.1 mg/kg
Text: The clearance of these two glucocorticoids is similar is this experimental pig model.

glucocorticoid receptor = target: T1, glucocorticoid receptor (Homo sapiens, UniProt P04150); experiment: In vitro functional glucocorticoid assays (metabolite vs parent); type: cell-based
T1 sequence (P04150 1-777): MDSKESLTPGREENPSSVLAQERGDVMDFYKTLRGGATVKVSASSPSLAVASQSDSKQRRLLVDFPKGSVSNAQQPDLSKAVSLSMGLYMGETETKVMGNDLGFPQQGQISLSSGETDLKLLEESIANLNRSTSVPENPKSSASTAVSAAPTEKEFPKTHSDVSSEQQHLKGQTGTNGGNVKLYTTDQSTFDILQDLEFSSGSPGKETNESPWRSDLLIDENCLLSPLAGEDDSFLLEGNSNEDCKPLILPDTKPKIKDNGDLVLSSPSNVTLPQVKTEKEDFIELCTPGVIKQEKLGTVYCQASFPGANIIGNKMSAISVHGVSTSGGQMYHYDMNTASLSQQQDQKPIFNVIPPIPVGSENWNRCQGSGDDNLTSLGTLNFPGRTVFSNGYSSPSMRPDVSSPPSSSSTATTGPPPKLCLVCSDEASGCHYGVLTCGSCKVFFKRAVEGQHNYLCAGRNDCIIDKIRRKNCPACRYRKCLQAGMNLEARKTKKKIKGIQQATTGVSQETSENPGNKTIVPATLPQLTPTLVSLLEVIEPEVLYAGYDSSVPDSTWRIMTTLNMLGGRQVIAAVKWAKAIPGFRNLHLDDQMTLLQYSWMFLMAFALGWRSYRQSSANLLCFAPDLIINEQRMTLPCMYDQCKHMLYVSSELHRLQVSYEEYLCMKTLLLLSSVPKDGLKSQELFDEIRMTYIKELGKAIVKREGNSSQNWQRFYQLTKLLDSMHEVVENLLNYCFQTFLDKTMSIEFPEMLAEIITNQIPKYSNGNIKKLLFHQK
Text: Compound (I) undergoes highly efficient hepatic metabolism to yield the 17-β carboxylic acid (X) as the sole major metabolite in rat and human in vitro systems.

NFκB = experiment: Transrepression (NFκB): firefly luciferase NFκB reporter in TNFα-stimulated A549 cells; type: cell-based; settings: Homo sapiens, TNFα 0.5 ng/ml, read-out: Transrepression (NFκB) ED50
Text: The glucocorticoid receptor (GR) can function in at least two distinct mechanisms, by upregulating gene expression through the direct binding of GR to specific sequences in gene promotors, and by downregulating gene expression that is being driven by other transcription factors (such as NFκB or AP-1) through their direct interaction with GR.
The first cell line contains the firefly luciferase reporter gene under the control of a synthetic promoter that specifically responds to activation of the transcription factor NFκB when stimulated with TNFα. The second cell line contains the renilla luciferase reporter gene under the control of a synthetic promotor that comprises 3 copies of the consensus glucocorticoid response element, and which responds to direct stimulation by glucocorticoids. Simultaneous measurement of transactivation and transrepression was conducted by mixing the two cell lines in a 1:1 ratio in 96 well plate (40,000 cells per well) and growing overnight at 37° C. Test compounds were dissolved in DMSO, and added to the cells at a final DMSO concentration of 0.7%. After incubation for 1 h 0.5 ng/ml TNFα (R&D Systems) was added and after a further 15 hours at 37° C., the levels of firefly and renilla luciferase were measured using the Packard Firelite kit following the manufacturers' directions. Dose response curves were constructed from which EC50 values were determined.

clearance, compound (I) vs fluticasone propionate (in words) [1]	pharmacokinetic parameters, compound (I) vs fluticasone propionate (in words) [1]	Compound	fold less active than the parent compound (glucocorticoid receptor) [fold]	EC50 (NFκB) [nM]
similar	the same	C[C@@H]1CC2C3C[C@H](F)C4=CC(=O)C=C[C@]4(C)[C@@]3(F)[C@@H](O)C[C@]2(C)[C@@]1(OC(=O)c1ccco1)C(=O)SCF (stereo partly drawn) [Compound of Formula (I), 6α, 9α-Difluoro-17α-[(2-furanylcarbonyl)oxy]-11β-hydroxy-16α-methyl-3-oxo-androsta-1,4-diene-17β-carbothioic acid S-fluoromethyl ester]	–	–
similar	the same	CCC(=O)O[C@]1(C(=O)SCF)[C@H](C)C[C@H]2[C@@H]3C[C@H](F)C4=CC(=O)C=C[C@]4(C)[C@@]3(F)[C@@H](O)C[C@@]21C [Fluticasone propionate, 6α, 9α-Difluoro-17α-(1-oxopropoxy)-11β-hydroxy-16α-methyl-3-oxo-androsta-1,4-diene-17β-carbothioic acid S-fluoromethyl ester, reference compound]	–	–
–	–	C[C@@H]1CC2C3C[C@H](F)C4=CC(=O)C=C[C@]4(C)[C@@]3(F)[C@@H](O)C[C@]2(C)[C@@]1(OC(=O)c1ccco1)C(=O)O (stereo partly drawn) [Metabolite (X)]	> 1000	> 1000
